Active and inactive are the calls of the source. The calls are words filed in the database; no cut-off is given here.
Tests used:
[1] = AUC in sixteen hrs fasted Sprague-Dawley rat at 3 mg/kg, po measured upto 24 hrs by LC-MS/MS analysis; assay type: ADME, organism-based; design: time < 24 hrs, dose 3 mg/kg, route po; conditions: in vivo
[2] = Cmax in sixteen hrs fasted Sprague-Dawley rat at 3 mg/kg, po measured upto 24 hrs by LC-MS/MS analysis; assay type: ADME, organism-based; design: time < 24 hrs, dose 3 mg/kg, route po; conditions: in vivo
[3] = AUC in sixteen hrs fasted Sprague-Dawley rat at 1 mg/kg, iv measured upto 24 hrs by LC-MS/MS analysis; assay type: ADME, organism-based; design: time < 24 hrs, dose 1 mg/kg, route iv; conditions: in vivo
Neuron [4] = assay: Neuroprotective activity against rat neuron cells assessed as inhibition of Abeta(1-42)-induced cytotoxicity by measuring increase in cell viability at 20 uM incubated for 24 hrs by MTT assay relative to control; assay type: functional
[5] = Cmax in sixteen hrs fasted Sprague-Dawley rat at 1 mg/kg, iv measured upto 24 hrs by LC-MS/MS analysis; assay type: ADME, organism-based; design: dose 1 mg/kg, time < 24 hrs, route iv; conditions: in vivo
[6] = Apparent permeability of the compound across basolateral side to apical side in human Caco-2 cells; assay type: ADME, cell-based
[7] = biological target: Mitogen-activated protein kinase 10 (Homo sapiens, UniProt P53779); assay: Inhibition of JNK3 (unknown origin) using ATF2 as substrate incubated for 40 mins in presence of [gamma33P]ATP by scintillation counting analysis
Neuron [8] = assay: Neuroprotective activity against rat neuron cells assessed as inhibition of Abeta(1-42)-induced cytotoxicity by measuring increase in cell viability at 20 uM incubated for 48 hrs by MTT assay relative to control; assay type: functional
[9] = Tmax in sixteen hrs fasted Sprague-Dawley rat at 3 mg/kg, po measured upto 24 hrs by LC-MS/MS analysis; assay type: ADME, organism-based; conditions: in vivo
[10] = Apparent permeability of the compound across apical side to basolateral side in human Caco-2 cells; assay type: ADME, cell-based
Mus musculus [11] = assay: Anti-alzheimer activity against APP/PS1 dE9 double transgenic mouse model assessed as time spent in platform quadrant at 30 mg/kg, po administered daily for 2 months and measured after 74 days by Morris water maze test (reference value: 14.40+/-1.60 %); assay type: functional; conditions: time 74 day
Mus musculus [12] = assay: Anti-alzheimer activity against APP/PS1 dE9 double transgenic mouse model assessed as time spent in target zone at 30 mg/kg, po administered daily for 2 months and measured after 74 days by Morris water maze test (reference value: 10.56+/-1.59 %); assay type: functional; conditions: time 74 day
Mus musculus [13] = assay: Anti-alzheimer activity against APP/PS1 dE9 double transgenic mouse model assessed as spontaneous alteration at 30 mg/kg, po administered daily for 2 months and measured after 57 days by Y-maze test (reference value: 45.69+/-2.33%); assay type: functional; conditions: time 57 day
[14] = biological target: Mitogen-activated protein kinase 8 (Homo sapiens, UniProt P45983); assay: Inhibition of JNK1 (unknown origin) using ATF2 as substrate incubated for 40 mins in presence of [gamma33P]ATP by scintillation counting analysis
Mus musculus [15] = assay: Anti-alzheimer activity against APP/PS1 dE9 double transgenic mouse model assessed as spontaneous alteration at 60 mg/kg, po administered daily for 2 months and measured after 57 days by Y-maze test (reference value: 45.69+/-2.33%); assay type: functional; conditions: time 57 day
[16] = Efflux ratio of apparent permeability across basolateral to apical side to apical to basolateral side in human Caco-2 cells; assay type: ADME, cell-based
[17] = Effective permeability of compound by […] method; assay type: ADME; conditions: read-out: Peff
Mus musculus [18] = assay: Anti-alzheimer activity against APP/PS1 dE9 double transgenic mouse model assessed as time spent in platform quadrant at 60 mg/kg, po administered daily for 2 months and measured after 74 days by Morris water maze test (reference value: 14.40+/-1.60 %); assay type: functional; conditions: time 74 day
Mus musculus [19] = assay: Anti-alzheimer activity against APP/PS1 dE9 double transgenic mouse model assessed as escape latency time at 60 mg/kg, po administered daily for 2 months and measured after 60 days by Passive avoidance test (reference value: 55.3+/-8.2 sec); assay type: functional; conditions: time 60 day
[20] = AUClast in sixteen hrs fasted Sprague-Dawley rat at 3 mg/kg, po measured upto 24 hrs by LC-MS/MS analysis; assay type: ADME, organism-based; design: dose 3 mg/kg, time < 24 hrs, route po; conditions: in vivo
[21] = Half life in sixteen hrs fasted Sprague-Dawley rat at 3 mg/kg, po measured upto 24 hrs by LC-MS/MS analysis; assay type: ADME, organism-based; conditions: in vivo
[22] = biological target: Mitogen-activated protein kinase 9 (Homo sapiens, UniProt P45984); assay: Inhibition of JNK2 (unknown origin) using ATF2 as substrate incubated for 40 mins in presence of [gamma33P]ATP by scintillation counting analysis
Mus musculus [23] = assay: Anti-alzheimer activity against APP/PS1 dE9 double transgenic mouse model assessed as time spent in target zone at 60 mg/kg, po administered daily for 2 months and measured after 74 days by Morris water maze test (reference value: 10.56+/-1.59 %); assay type: functional; conditions: time 74 day
Mus musculus [24] = assay: Anti-alzheimer activity against APP/PS1 dE9 double transgenic mouse model assessed as escape latency time at 30 mg/kg, po administered daily for 2 months and measured after 60 days by Passive avoidance test (reference value: 55.3+/-8.2 sec); assay type: functional; conditions: time 60 day
[25] = biological target: Mitogen-activated protein kinase 10 (Rattus norvegicus) (UniProt P49187); assay: Inhibition of anisomycin induced JNK3 activation in rat cortex neuron cells assessed as inhibition of APP phosphorylation at 10 to 20 uM preincubated for 90 mins followed by anisomycin addition and measured after 40 mins by Western blot analysis; assay type: cell-based; conditions: dose 10-20 µM
[26] = biological target: Mitogen-activated protein kinase 10 (Rattus norvegicus) (UniProt P49187); assay: Inhibition of A-beta (1 to 42) induced JNK3 activation in rat cortex neuron cells assessed as reduction in c-Jun phosphorylation levels at 10 to 20 uM incubated for 24 hrs in presence of A-beta (1 to 42) by Western blot analysis; assay type: cell-based; conditions: dose 10-20 µM
Neuron [27] = assay: Inhibition of apoptosis in rat cortex neuron cells assessed as prevention of A-beta (1 to 42) induced cleaved PARP formation at 10 to 20 uM measured after 24 hrs by Western blot analysis; assay type: functional, cell-based; conditions: dose 10-20 µM
Neuron [28] = assay: Inhibition of apoptosis in rat cortex neuron cells assessed as prevention of A-beta (1 to 42) induced cleaved caspase-3 formation at 10 to 20 uM measured after 24 hrs by Western blot analysis; assay type: functional, cell-based; conditions: dose 10-20 µM
[29] = biological target: Mitogen-activated protein kinase 10 (Rattus norvegicus) (UniProt P49187); assay: Inhibition of anisomycin induced JNK3 activation in rat cortex neuron cells assessed as reduction in Jun phosphorylation levels at 10 to 20 uM preincubated for 90 mins followed by anisomycin addition and measured after 40 mins by Western blot analysis; assay type: cell-based; conditions: dose 10-20 µM, time 130.0 min

Chain of Mitogen-activated protein kinase 8 (P45983 whole entry): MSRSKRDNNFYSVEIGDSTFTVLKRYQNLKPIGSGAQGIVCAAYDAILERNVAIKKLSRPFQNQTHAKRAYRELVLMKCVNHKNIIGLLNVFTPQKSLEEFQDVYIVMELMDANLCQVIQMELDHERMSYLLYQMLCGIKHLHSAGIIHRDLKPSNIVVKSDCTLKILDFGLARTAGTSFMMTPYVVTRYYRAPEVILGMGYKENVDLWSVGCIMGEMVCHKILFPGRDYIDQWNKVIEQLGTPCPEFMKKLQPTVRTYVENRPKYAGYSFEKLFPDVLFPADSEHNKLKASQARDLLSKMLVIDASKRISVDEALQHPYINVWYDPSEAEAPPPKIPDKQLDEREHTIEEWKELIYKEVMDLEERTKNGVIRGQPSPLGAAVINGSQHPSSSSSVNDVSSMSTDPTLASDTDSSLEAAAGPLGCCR
Chain of Mitogen-activated protein kinase 9 (P45984 whole entry): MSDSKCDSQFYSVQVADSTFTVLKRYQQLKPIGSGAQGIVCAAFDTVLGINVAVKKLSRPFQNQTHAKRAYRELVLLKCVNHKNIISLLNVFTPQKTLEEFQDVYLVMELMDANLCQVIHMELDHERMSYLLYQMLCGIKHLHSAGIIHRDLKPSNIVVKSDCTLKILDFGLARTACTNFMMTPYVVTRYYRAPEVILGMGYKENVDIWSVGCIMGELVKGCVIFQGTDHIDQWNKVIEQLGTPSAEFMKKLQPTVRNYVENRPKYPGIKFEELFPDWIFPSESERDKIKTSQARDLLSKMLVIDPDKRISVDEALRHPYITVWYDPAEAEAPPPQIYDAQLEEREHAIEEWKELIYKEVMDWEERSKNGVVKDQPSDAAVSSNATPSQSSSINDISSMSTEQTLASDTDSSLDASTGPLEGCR
Chain of Mitogen-activated protein kinase 10 (Rattus norvegicus) (P49187 whole entry): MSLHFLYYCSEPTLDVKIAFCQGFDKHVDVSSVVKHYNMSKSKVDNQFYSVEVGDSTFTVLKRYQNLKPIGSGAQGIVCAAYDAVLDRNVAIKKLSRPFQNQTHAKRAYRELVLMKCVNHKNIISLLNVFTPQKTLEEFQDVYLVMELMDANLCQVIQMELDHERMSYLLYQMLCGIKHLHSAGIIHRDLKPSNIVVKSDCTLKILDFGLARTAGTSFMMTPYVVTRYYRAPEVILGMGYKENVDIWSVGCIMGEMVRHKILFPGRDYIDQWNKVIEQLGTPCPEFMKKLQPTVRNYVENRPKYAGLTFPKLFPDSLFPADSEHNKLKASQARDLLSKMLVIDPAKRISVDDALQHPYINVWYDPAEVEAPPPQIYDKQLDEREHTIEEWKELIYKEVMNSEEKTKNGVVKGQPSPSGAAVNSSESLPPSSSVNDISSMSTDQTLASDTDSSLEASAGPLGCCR
Chain of Mitogen-activated protein kinase 10 (P53779 whole entry): as the sequence (P49187 whole entry) above, with H27Q, S32Y, V33I, V34A counted along it

| AUC at 24 h [1] [ng·h/mL] | Cmax [2] [ng/mL] | IC50 [14] [nM] | IC50 [22] [nM] | SMILES | Activity (Neuron [4]) [%] | Activity (Neuron [8]) [%] | Papp [17] [×10⁻⁶ cm/s] | further results |
| --- | --- | --- | --- | --- | --- | --- | --- | --- |
| 345 | 277 |  |  | NC(=O)Oc1ccc2nc(-c3ccc4ccccc4c3)n(-c3ccnc(N[C@H]4CCCN(C(=O)C5CC5)C4)n3)c2c1 |  |  |  |  |
| 392 |  |  |  | N#CCc1cnc(-c2ccc3ccccc3c2)n1-c1ccnc(N[C@H]2CCCN(C(=O)C3CC3)C2)n1 | 14.1 |  |  | AUC at 24 h [3]: 614 ng·h/mL; Cmax [5]: 1120 ng/mL |
|  |  |  |  | CC(=O)[C@H]1CC[C@H]2[C@@H]3CCC4=CC(=O)CC[C@]4(C)[C@H]3CC[C@]12C [PROGESTERONE] |  |  | 26.5 |  |
|  | 423 | 705 | 151 | O=C(C1CC1)N1CCC[C@H](Nc2nccc(-n3c(-c4ccc5ccccc5c4)nc4c(F)cc(O)cc43)n2)C1 | 59.5 | 35.2 | 22.9 | IC50 [7]: 10 nM; inhibition [25]: Active; inhibition [26]: Active; inhibition (Neuron [27]): Active; inhibition (Neuron [28]): Active; inhibition [29]: Active |
|  |  | 301 | 125 | O=C(C1CC1)N1CCC[C@H](Nc2nccc(-n3c(-c4ccc5ccccc5c4)nc4ccc(O)cc43)n2)C1 | 41.2 | 21.8 | 35.1 | AUC at 24 h [3]: 349 ng·h/mL; Cmax [5]: 1510 ng/mL |
| 260 | 253 |  |  | CCNC(=O)Oc1ccc2nc(-c3ccc4ccccc4c3)n(-c3ccnc(N[C@H]4CCCN(C(=O)C5CC5)C4)n3)c2c1 |  |  |  |  |

| SMILES | AUC at 24 h [1] [ng·h/mL] | Cmax [2] [ng/mL] | IC50 [14] [nM] | IC50 [22] [nM] | Activity (Neuron [4]) [%] | Activity (Neuron [8]) [%] | Papp [17] [×10⁻⁶ cm/s] | further results |
| --- | --- | --- | --- | --- | --- | --- | --- | --- |
| CNC(=O)Oc1ccc2nc(-c3ccc4ccccc4c3)n(-c3ccnc(N[C@H]4CCCN(C(=O)C5CC5)C4)n3)c2c1 | 351 | 342 | 1040 | 973 | 34.8 | 17.2 | 67.2 | Papp B→A [6]: 11.3 ×10⁻⁶ cm/s; IC50 [7]: 53 nM; Tmax [9]: 23.4 min; Papp A→B [10]: 4.9 ×10⁻⁶ cm/s; Activity (Mus musculus [11]): 16.84%; Activity (Mus musculus [12]): 12.57%; Activity (Mus musculus [13]): 52.7%; Activity (Mus musculus [15]): 53.46%; efflux ratio [16]: 2.31; Activity (Mus musculus [18]): 21.12%; Time (Mus musculus [19]): 59.3 s; AUC(0-t) at 24 h [20]: 351 ng·h/mL; half-life [21]: 39 min; Activity (Mus musculus [23]): 16.42%; Time (Mus musculus [24]): 61.6 s |
| CN(C)C(=O)Oc1ccc2nc(-c3ccc4ccccc4c3)n(-c3ccnc(N[C@H]4CCCN(C(=O)C5CC5)C4)n3)c2c1 | 554 | 483 |  |  |  |  |  |  |

From ChEMBL document CHEMBL5338752, “Carbamate JNK3 Inhibitors Show Promise as Effective Treatments for Alzheimer's Disease: In Vivo Studies on Mouse Models” (J Med Chem, 2023)
